Test results taken from paper PMC6572064, “Discovery of 2-(1-(3-(4-Chloroxyphenyl)-3-oxo- propyl)pyrrolidine-3-yl)-1H-benzo[d]imidazole-4-carboxamide: A Potent Poly(ADP-ribose) Polymerase (PARP) Inhibitor for Treatment of Cancer” (Molecules, 2019).
Read-outs that look alike come from different tables or passages of the source.

How the values were obtained:
[1] = tested on: MDA-MB-436 (a BRCA-1-mutated breast cancer cell line); experiment: Cell proliferation assay, three-day, CellTiter-Glo, MDA-MB-436; format: cell-based; conditions: Homo sapiens; for inhibition at 0.00508 µM: MDA-MB-436, MDA-MB-436, Conc. 0.00508 uM; for inhibition at 0.0152 µM: MDA-MB-436, MDA-MB-436, Conc. 0.0152 uM; for inhibition at 0.0457 µM: MDA-MB-436, MDA-MB-436, Conc. 0.0457 uM; for inhibition at 0.41 µM: MDA-MB-436, MDA-MB-436, Conc. 0.41 uM; for inhibition at 1.23 µM: MDA-MB-436, MDA-MB-436, Conc. 1.23 uM; for inhibition at 3.7 µM: MDA-MB-436, MDA-MB-436, Conc. 3.70 uM; for inhibition at 11.11 µM: MDA-MB-436, MDA-MB-436, Conc. 11.11 uM; for inhibition at 33.33 µM: MDA-MB-436, MDA-MB-436, Conc. 33.33 uM; for inhibition at 100 µM: MDA-MB-436, MDA-MB-436, Conc. 100.00 uM; for IC50: MDA-MB-436, 72 h, CellTiter-Glo, read-out: MDA-MB-436 IC50
Procedure, shortened: (§1)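 Luminescent ATP read-out (CellTiter-Glo, 60 min at room temperature) quantified viability after a 72 h compound exposure at 37 °C, 5% CO2. Compounds, diluted from DMSO stocks into growth medium, were added to cells plated the previous day.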

[2] = target: T1, PARP-1 (Homo sapiens, UniProt P09874); experiment: PARP-1 inhibition assay (PARP-1 Chemiluminescent Assay Kit, BPS Bioscience); format: biochemical; conditions: for inhibition at 0.01 µM: 10 nM compound
T1 construct: purchased BPS Bioscience 80569
T1 sequence (P09874 whole entry): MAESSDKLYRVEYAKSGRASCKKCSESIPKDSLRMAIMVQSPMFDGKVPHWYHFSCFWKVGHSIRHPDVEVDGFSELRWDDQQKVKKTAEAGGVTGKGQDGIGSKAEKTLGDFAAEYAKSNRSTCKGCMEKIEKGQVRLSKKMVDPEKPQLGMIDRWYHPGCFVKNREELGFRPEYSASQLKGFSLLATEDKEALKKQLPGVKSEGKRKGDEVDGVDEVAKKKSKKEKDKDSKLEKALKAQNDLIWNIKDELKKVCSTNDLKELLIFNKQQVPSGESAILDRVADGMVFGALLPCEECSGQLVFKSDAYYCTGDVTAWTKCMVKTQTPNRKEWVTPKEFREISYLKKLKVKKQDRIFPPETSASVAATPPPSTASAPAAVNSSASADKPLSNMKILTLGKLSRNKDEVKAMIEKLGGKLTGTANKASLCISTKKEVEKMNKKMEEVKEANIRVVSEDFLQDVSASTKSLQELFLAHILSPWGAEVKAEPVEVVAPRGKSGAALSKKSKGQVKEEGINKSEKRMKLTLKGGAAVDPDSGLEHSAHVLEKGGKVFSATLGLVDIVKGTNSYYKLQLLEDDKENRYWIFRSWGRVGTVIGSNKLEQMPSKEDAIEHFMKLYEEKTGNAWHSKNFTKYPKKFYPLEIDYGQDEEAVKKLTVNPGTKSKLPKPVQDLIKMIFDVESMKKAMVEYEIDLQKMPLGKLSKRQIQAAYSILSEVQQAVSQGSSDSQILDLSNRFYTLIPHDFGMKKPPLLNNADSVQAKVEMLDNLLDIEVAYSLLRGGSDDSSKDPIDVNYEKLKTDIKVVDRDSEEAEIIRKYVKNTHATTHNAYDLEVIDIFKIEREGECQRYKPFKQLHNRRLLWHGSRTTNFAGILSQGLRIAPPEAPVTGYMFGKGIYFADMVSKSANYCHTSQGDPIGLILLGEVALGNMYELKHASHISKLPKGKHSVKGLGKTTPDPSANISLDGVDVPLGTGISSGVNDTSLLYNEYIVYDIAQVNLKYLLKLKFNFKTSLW
Procedure: (§2) The PARP-1 and PARP-2 inhibition assays were performed in outsourcing, by a CRO company, Shanghai Medicilon Inc. (Shanghai, China). […] Briefly, PARP-1 or PARP-2 biotinylated substrate was incubated with compounds or solvent control at varying concentrations and an assay buffer containing the PARP-1 or PARP-2 enzyme.

[3] = tested on: CAPAN-1 (a BRCA-2-mutated pancreatic cancer cell line); experiment: Cell proliferation assay, three-day, CellTiter-Glo, CAPAN-1; format: cell-based; conditions: for IC50 / inhibition at 0.00508 µM / inhibition at 0.0152 µM / inhibition at 0.0457 µM / inhibition at […] / inhibition at 0.41 µM / inhibition at 1.23 µM / inhibition at 3.7 µM / inhibition at 11.11 µM / inhibition at 33.33 µM / inhibition at 100 µM: Homo sapiens; for IC50: CAPAN-1, 72 h, CellTiter-Glo, read-out: CAPAN-1 IC50; for inhibition at 0.0457 µM: CAPAN-1, 0.0457 uM; for inhibition at […]: CAPAN-1, 0.14 uM; for inhibition at 0.41 µM: CAPAN-1, 0.41 uM; for inhibition at 1.23 µM: CAPAN-1, 1.23 uM; for inhibition at 3.7 µM: CAPAN-1, 3.70 uM; for inhibition at 11.11 µM: CAPAN-1, 11.11 uM; for inhibition at 33.33 µM: CAPAN-1, 33.33 uM; for inhibition at 100 µM: CAPAN-1, 100.00 uM
Procedure, shortened: as §1

[4] = target: T2, PARP-2 (Homo sapiens, UniProt Q9UGN5); experiment: PARP-2 inhibition assay (PARP-2 Chemiluminescent Assay Kit, BPS Bioscience); format: biochemical; conditions: for inhibition at 0.01 µM: 10 nM compound
T2 construct: purchased BPS Bioscience 80552
T2 sequence (Q9UGN5 whole entry): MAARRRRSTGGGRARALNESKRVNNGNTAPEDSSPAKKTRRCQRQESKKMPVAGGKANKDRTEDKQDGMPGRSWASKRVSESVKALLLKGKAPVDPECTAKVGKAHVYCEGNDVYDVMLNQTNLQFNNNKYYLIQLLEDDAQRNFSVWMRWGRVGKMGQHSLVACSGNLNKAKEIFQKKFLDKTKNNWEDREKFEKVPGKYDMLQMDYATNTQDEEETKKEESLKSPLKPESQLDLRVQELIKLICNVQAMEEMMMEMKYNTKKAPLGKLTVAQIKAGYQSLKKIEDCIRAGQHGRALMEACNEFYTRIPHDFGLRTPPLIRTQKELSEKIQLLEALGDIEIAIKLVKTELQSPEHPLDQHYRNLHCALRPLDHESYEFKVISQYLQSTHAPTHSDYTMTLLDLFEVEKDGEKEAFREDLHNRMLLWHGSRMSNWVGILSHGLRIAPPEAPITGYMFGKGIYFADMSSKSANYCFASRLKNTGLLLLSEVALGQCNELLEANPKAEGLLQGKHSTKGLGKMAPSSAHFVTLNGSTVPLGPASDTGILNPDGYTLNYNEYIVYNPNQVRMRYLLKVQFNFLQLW
Procedure: as §2

[5] = supplement sheet, read-out: 10 nM inhibition% PAPR-1
[6] = read-out: PARP-1 Inhibition % (10 nM)
[7] = supplement sheet, read-out: 10 nM inhibition% PAPR-2
[8] = read-out: PARP-2 Inhibition % (10 nM)

For `NC(=O)c1cccc2[nH]c(C3CCN(CCCNc4ccccc4)C3)nc12` (stereo not drawn) [Compound 5ch, 2-(1-(3-(Phenylamino)propyl)pyrrolidin-3-yl)-1H-benzo[d]imidazole-4-carboxamide], the inhibition at 0.00508 µM ([1]; replicate 1, read-out: Inh % 1) was -7%, the inhibition at 0.00508 µM ([1]; replicate 2, read-out: Inh % 2) was -8.2% and the inhibition at 0.0152 µM ([1]; replicate 1, read-out: Inh % 1) was -3%. It also gave an inhibition at 0.0152 µM ([1]; replicate 2, read-out: Inh % 2) of -8%, an inhibition at 0.0457 µM ([1]; replicate 1, read-out: Inh % 1) of -14.2% and an inhibition at 0.0457 µM ([1]; replicate 2, read-out: Inh % 2) of -14.8%. The inhibition at 0.41 µM ([1]; replicate 1, read-out: Inh % 1) was -13.7%, the inhibition at 0.41 µM ([1]; replicate 2, read-out: Inh % 2) was -16% and the inhibition at 1.23 µM ([1]; replicate 1, read-out: Inh % 1) was -13.7%. For the same compound, the inhibition at 1.23 µM ([1]; replicate 2, read-out: Inh % 2) was -10.6%, the inhibition at 3.7 µM ([1]; replicate 1, read-out: Inh % 1) was -16.2% and the inhibition at 3.7 µM ([1]; replicate 2, read-out: Inh % 2) was -4.5%. For the same compound, the inhibition at 11.11 µM ([1]; replicate 1, read-out: Inh % 1) was -9.3%, the inhibition at 11.11 µM ([1]; replicate 2, read-out: Inh % 2) was -8.6% and the inhibition at 33.33 µM ([1]; replicate 1, read-out: Inh % 1) was 3.2%. For the same compound, the inhibition at 33.33 µM ([1]; replicate 2, read-out: Inh % 2) was -1.4%, the inhibition at 100 µM ([1]; replicate 1, read-out: Inh % 1) was 39.9% and the inhibition at 100 µM ([1]; replicate 2, read-out: Inh % 2) was 37.2%. For the same compound, the IC50 [1] was greater than 100000 nM, the inhibition at 0.01 µM [2, 5] was 47.5% and the inhibition at 0.01 µM [2, 6] was 47.5%. The IC50 ([2]; read-out: PARP-1 IC50) was 7.1 nM, the IC50 ([2]; supplement sheet, read-out: IC50 PAPR-1) was 7.14 nM and the LogIC50 ([3]; CAPAN-1, curve-fit output, Log (uM)) was 2.153. For the same compound, the IC50 [3] was greater than 100000 nM, the inhibition at 0.00508 µM ([3]; CAPAN-1, 0.00508 uM, replicate 1, read-out: Inh % 1) was 2.8% and the inhibition at 0.00508 µM ([3]; CAPAN-1, 0.00508 uM, replicate 2, read-out: Inh % 2) was -6.9%. The inhibition at 0.0152 µM ([3]; CAPAN-1, 0.0152 uM, replicate 1, read-out: Inh % 1) was 3.5%, the inhibition at 0.0152 µM ([3]; CAPAN-1, 0.0152 uM, replicate 2, read-out: Inh % 2) was 0.5% and the inhibition at 0.0457 µM ([3]; replicate 1, read-out: Inh % 1) was 5%. For the same compound, the inhibition at 0.0457 µM ([3]; replicate 2, read-out: Inh % 2) was 0.2%, the inhibition at […] ([3]; replicate 1, read-out: Inh % 1) was -1.8% and the inhibition at […] ([3]; replicate 2, read-out: Inh % 2) was -3%. For the same compound, the inhibition at 0.41 µM ([3]; replicate 1, read-out: Inh % 1) was 6.4%, the inhibition at 0.41 µM ([3]; replicate 2, read-out: Inh % 2) was 6.3% and the inhibition at 1.23 µM ([3]; replicate 1, read-out: Inh % 1) was -2.4%. It also gave an inhibition at 1.23 µM ([3]; replicate 2, read-out: Inh % 2) of -3.6%, an inhibition at 3.7 µM ([3]; replicate 1, read-out: Inh % 1) of 7.7% and an inhibition at 3.7 µM ([3]; replicate 2, read-out: Inh % 2) of 10.2%. The inhibition at 11.11 µM ([3]; replicate 1, read-out: Inh % 1) was 2.2%, the inhibition at 11.11 µM ([3]; replicate 2, read-out: Inh % 2) was 3% and the inhibition at 33.33 µM ([3]; replicate 1, read-out: Inh % 1) was 29.9%. For the same compound, the inhibition at 33.33 µM ([3]; replicate 2, read-out: Inh % 2) was 20.6%, the inhibition at 100 µM ([3]; replicate 1, read-out: Inh % 1) was 46.6% and the inhibition at 100 µM ([3]; replicate 2, read-out: Inh % 2) was 35.5%. The inhibition at 0.01 µM [4, 7] was 66.2%, the inhibition at 0.01 µM [4, 8] was 66.2% and the IC50 ([4]; read-out: PARP-2 IC50) was 3.3 nM. The IC50 ([4]; supplement sheet, read-out: IC50 PAPR-2) was 3.33 nM.

For `NC(=O)c1cccc2[nH]c(C3CCN(CCN4C(=O)c5ccccc5C4=O)C3)nc12` (stereo not drawn) [Compound 5ck, 2-(1-(2-(1,3-Dioxoisoindolin-2-yl)ethyl)pyrrolidin-3-yl)-1H-benzo[d]imidazole-4-carboxamide], the inhibition at 0.00508 µM ([1]; replicate 1, read-out: Inh % 1) was -0.108%, the inhibition at 0.00508 µM ([1]; replicate 2, read-out: Inh % 2) was -3.8% and the inhibition at 0.0152 µM ([1]; replicate 1, read-out: Inh % 1) was -3.1%. The inhibition at 0.0152 µM ([1]; replicate 2, read-out: Inh % 2) was -1.8%, the inhibition at 0.0457 µM ([1]; replicate 1, read-out: Inh % 1) was -9.3% and the inhibition at 0.0457 µM ([1]; replicate 2, read-out: Inh % 2) was -11.9%. The inhibition at 0.41 µM ([1]; replicate 1, read-out: Inh % 1) was -11%, the inhibition at 0.41 µM ([1]; replicate 2, read-out: Inh % 2) was -21.7% and the inhibition at 1.23 µM ([1]; replicate 1, read-out: Inh % 1) was -18.8%. The inhibition at 1.23 µM ([1]; replicate 2, read-out: Inh % 2) was -14.6%, the inhibition at 3.7 µM ([1]; replicate 1, read-out: Inh % 1) was -15.1% and the inhibition at 3.7 µM ([1]; replicate 2, read-out: Inh % 2) was -12.2%. The inhibition at 11.11 µM ([1]; replicate 1, read-out: Inh % 1) was -14.1%, the inhibition at 11.11 µM ([1]; replicate 2, read-out: Inh % 2) was -10% and the inhibition at 33.33 µM ([1]; replicate 1, read-out: Inh % 1) was -6.4%. It also gave an inhibition at 33.33 µM ([1]; replicate 2, read-out: Inh % 2) of -12%, an inhibition at 100 µM ([1]; replicate 1, read-out: Inh % 1) of -8.9% and an inhibition at 100 µM ([1]; replicate 2, read-out: Inh % 2) of -13.6%. The IC50 [1] was greater than 100000 nM, the inhibition at 0.01 µM [2, 5] was 6.02% and the inhibition at 0.01 µM [2, 6] was 6%. It also gave an IC50 [3] greater than 100000 nM, an inhibition at 0.0457 µM ([3]; replicate 1, read-out: Inh % 1) of -1.5% and an inhibition at 0.0457 µM ([3]; replicate 2, read-out: Inh % 2) of -9.2%. The inhibition at […] ([3]; replicate 1, read-out: Inh % 1) was 8.7%, the inhibition at […] ([3]; replicate 2, read-out: Inh % 2) was -3.2% and the inhibition at 0.41 µM ([3]; replicate 1, read-out: Inh % 1) was 9%. It also gave an inhibition at 0.41 µM ([3]; replicate 2, read-out: Inh % 2) of -5.8%, an inhibition at 1.23 µM ([3]; replicate 1, read-out: Inh % 1) of 3.9% and an inhibition at 1.23 µM ([3]; replicate 2, read-out: Inh % 2) of -9.8%. For the same compound, the inhibition at 3.7 µM ([3]; replicate 1, read-out: Inh % 1) was 1.2%, the inhibition at 3.7 µM ([3]; replicate 2, read-out: Inh % 2) was 2.6% and the inhibition at 11.11 µM ([3]; replicate 1, read-out: Inh % 1) was -2.3%. The inhibition at 11.11 µM ([3]; replicate 2, read-out: Inh % 2) was -4.3%, the inhibition at 33.33 µM ([3]; replicate 1, read-out: Inh % 1) was 6.8% and the inhibition at 33.33 µM ([3]; replicate 2, read-out: Inh % 2) was 4.4%. The inhibition at 100 µM ([3]; replicate 1, read-out: Inh % 1) was -2.5%, the inhibition at 100 µM ([3]; replicate 2, read-out: Inh % 2) was -5.6% and the inhibition at 0.00508 µM ([3]; CAPAN-1, Conc. 0.00508 uM, replicate 1, read-out: Inh % 1) was 2.6%. It also gave an inhibition at 0.00508 µM ([3]; CAPAN-1, Conc. 0.00508 uM, replicate 2, read-out: Inh % 2) of 0.639%, an inhibition at 0.0152 µM ([3]; CAPAN-1, Conc. 0.0152 uM, replicate 1, read-out: Inh % 1) of 6.1% and an inhibition at 0.0152 µM ([3]; CAPAN-1, Conc. 0.0152 uM, replicate 2, read-out: Inh % 2) of -0.5%. The inhibition at 0.01 µM [4, 7] was 37.1% and the inhibition at 0.01 µM [4, 8] was 37.1%.
